Legend:
GP2D cells = assay: Cell proliferation assay (CellTiter-Glo), K-Ras G12D cells; format: cell-based; settings: bins given, read-out: Inhibition of GP2D Cells (IC50)
Protocol: ASPC-1 (ATCC CRL-1682), Panc-10.05 (ATCC CRL-2547), A427, and GP2D (Sigma 95090714) cell lines comprise a G12D mutation and can be used to assess Ras cellular signaling in vitro, e.g., in response to the compounds herein. […] ASPC-1 culture medium is prepared with RPMI-1640 and 10% heat-inactivated FBS. Panc-10.05 culture medium is prepared with RPMI-1640, 10 Units/ml human recombinant insulin, and 10% FBS. A427 cell culture is prepared with RPMI-1640 and 10% heat-inactivated FBS. GP2D culture medium is prepared with DMEM with 2 mM glutamine and 10% heat-inactivated FBS. A CellTiter-Glo (CTG) luminescent based assay (Promega) is used to assess growth of the cells, as a measurement of the ability of the compounds herein to inhibit Ras signaling in the cells. The cells (e.g., 800 per well) are seeded in their respective culture medium in standard tissue culture-treated 384-well format plates (Falcon #08-772-116) or ultra-low attachment surface 384-well format plates (S-Bio #MS-9384UZ). The day after plating, cells are treated with a dilution series (e.g., a 9 point 3-fold dilution series) of the compounds herein (e.g., approximately 40 μl final volume per well). Cell viability can be monitored (e.g., approximately 5 days later) according to the manufacturer's recommended instructions, where the CellTiter-Glo reagent is added (e.g., approximately 10 μl), vigorously mixed, covered, and placed on a plate shaker (e.g., approximately for 20 min) to ensure sufficient cell lysis prior to assessment of luminescent signal. The IC50 values are determined using the four parameter fit. The resulting IC50 value is a measurement of the ability of the compounds herein to reduce cell growth of Ras-driven cells (e.g., tumor cell lines) in vitro and/or in vivo.

[1] = target: T1, KRAS G12D 1-169 (His-tagged, GDP-loaded) (Homo sapiens, UniProt P01116, G12D); assay: Covalent modification of KRAS protein by intact-protein LC-MS; format: binding; settings: comparable or same conditions as K-Ras G12S
T1 construct: His -tagged GDP-loaded G12D 1-169; made in house; host or cells: E. coli, e.g. BL21 (DE3)
How it was run: (§1)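 Percent modification is derived from deconvoluted intact-protein LC-ESI-MS peak intensities of adducted versus unmodified KRAS. GDP-loaded His-tagged KRAS 1-169 (~2 μM, HEPES buffer at physiological conditions) was exposed to compound for 24 hrs at room temperature, then quenched with formic acid before C4 reversed-phase separation.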

[2] = target: T2, KRAS G12S 1-169 (His-tagged, GDP-loaded) (Homo sapiens, UniProt P01116, G12S); assay: as above; format: binding; settings: KRAS G12S, 24 hr
T2 construct: His -tagged GDP-loaded G12S 1-169; made in house; host or cells: E. coli, e.g. BL21 (DE3)
How it was run: as §1

A549 cells = assay: Cell proliferation assay (CellTiter-Glo), K-Ras G12S cells; format: cell-based; settings: Homo sapiens, A549; ≤500 nM; read-out: Inhibition of A549 Cells (IC50)
Protocol: (§2) A549 (ATCC CRL-185) and LS123 (ATCC CRL-255) cell lines comprise a G12S mutation and can be used to assess Ras cellular signaling in vitro, e.g., in response to the compounds herein. A549 culture medium is prepared with RPMI-1640 and 10% heat-inactivated FBS. LS123 culture medium is prepared with RPMI-1640 and 10% heat-inactivated FBS. A CellTiter-Glo (CTG) luminescent based assay (Promega) is used to assess growth of the cells, as a measurement of the ability of the compounds herein to inhibit Ras signaling in the cells. The cells (e.g., 800 per well) are seeded in their respective culture medium in standard tissue culture-treated 384-well format plates (Falcon #08-772-116) or ultra-low attachment surface 384-well format plates (S-Bio #MS-9384WZ). The day after plating, cells are treated with a dilution series (e.g., a 10 point 3-fold dilution series) of the compounds herein (e.g., approximately 40 μl final volume per well). Cell viability can be monitored (e.g., approximately 6 days later) according to the manufacturer's recommended instructions, where the CellTiter-Glo reagent is added (e.g., approximately 10 μl), vigorously mixed, covered, and placed on a plate shaker (e.g., approximately for 20 min) to ensure sufficient cell lysis prior to assessment of luminescent signal. The IC50 values are determined using the four parameter fit. The resulting IC50 value is a measurement of the ability of the compounds herein to reduce cell growth of Ras-driven cells (e.g., tumor cell lines) in vitro and/or in vivo.

LS123 cells = assay: as above; format: cell-based; settings: Comparative Compound A lacking the warhead vs Compound B
Protocol: as §2

K-Ras G12S = target: T3, K-Ras G12S (Homo sapiens, UniProt P01116, G12S); assay: HTRF assay, K-Ras G12S / SOS1 interaction; format: biochemical; settings: IC50 against K-Ras G12D divided by IC50 against K-Ras G12S
T3 construct: made in house; host or cells: E. coli, e.g. BL21 (DE3)
Text: This assay can be also used to assess a selective inhibition or reduction of signaling output of a mutant Ras protein relative to a wildtype, or relative to a different mutant Ras protein. For example, the equilibrium interaction of wildtype Kras or K-Ras mutant (e.g., wildtype or a mutant thereof including those mentioned in Example 6) with SOS1 (e.g., hSOS1) can be assessed as a proxy or an indication for a subject compound's ability to bind and inhibit Ras protein. HTRF assay detects from (i) a fluorescence resonance energy transfer (FRET) donor (e.g., antiGST-Europium) that is bound to GST-tagged K-Ras mutant to (ii) a FRET acceptor (e.g., anti-6His -XL665) bound to a His -tagged hSOS1.
The assay buffer can contain ˜5 mM HEPES pH 7.4, ˜150 mM NaCl, ˜1 mM DTT, 0.05% BSA and 0.0025% (v/v) Igepal. A Ras working solution is prepared in an assay buffer containing typically a suitable amount of the protein construct (e.g., GST-tagged K-Ras mutant) and the FRET donor (e.g., antiGST-Eu(K) from Cisbio, France). A SOS1 working solution is prepared in an assay buffer containing suitable amount of the protein construct (e.g., His -hSOS1) and the FRET acceptor (e.g., anti-6His -XL665 from Cisbio, France). A suitable amount of the protein construct will depend on the range of activity or range of IC50 values being detected or under investigation. For detecting IC50 within a range of 500 nM, the protein constructs of the same range of molarity can be utilized.
A fixed volume of DMSO with or without test compound is transferred into a 384-well plate. Ras working solution is added to all wells of the test plate. SOS1 working solution is added to all wells except for those that are subsequently filled the inhibitor control solution. Upon incubation for about 10 minutes or longer, the fluorescence is measured with a M1000Pro plate reader (Tecan) using HTRF detection (excitation 337 nm, emission 1: 620 nm, emission 2: 665 nm). Compounds are tested in duplicates at different concentrations (for example, 10 μM, 2.5 μM, 0.63 μM, 0.16 μM, 0.04 μM, 0.01 μM test compound). The ratiometric data (i.e., emission 2 divided by emission 1) is used to calculate IC50 values against Ras using GraphPad Prism (GraphPad software). Following this general procedure, samples were tested with or without a subject compound disclosed herein including compounds exemplified in Table 3 to assess their abilities to inhibit K-Ras G12S relative to another mutant (e.g., K-Ras G12D). Signaling output measured in terms of IC50 values can be obtained, a ratio of IC50 against one mutant relative to another mutant can be calculated. For instance, a selective reduction of K-Ras G12S signaling output can be evidenced by a ratio greater than one. In particular, a selective reduction of K-Ras G12S signaling relative to K-Ras G12D signaling is evidenced as the ratio of IC50 (against K-Ras G12D) to IC50 (against K-Ras G12S) is greater than 1.

[3] = Metabolic (microsomal) stability assay; settings: pooled liver microsomes, pH 7.4
in vitro = settings: microsomes, pH 7.4

## N#Cc1c(N)sc2c(F)ccc(-c3c(Cl)cc4c(N5CC(F)(F)C6(CN(C(=O)n7cncn7)C6)C5)nc(OC[C@@]56CCCN5C[C@H](F)C6)nc4c3F)c12 [Compound A199, 2-amino-4-(6-chloro-4-(8,8-difluoro-2-(1H-1,2,4-triazole-1-carbonyl)-2,6-diazaspiro[3.4]-octan-6-yl)-8-fluoro-2-(((2R,7aS)-2-fluorotetrahydro-1H-pyrrolizin-7a(5H)-yl)meth-oxy)quinazolin-7-yl)-7-fluoro-benzo[b]thiophene-3-carbonitrile]
GP2D cells
  IC50: 1000 to 10000 nM
[1]
  covalent labeling of K-Ras G12D: essentially no detectable labeling
[2]
  % G12S Modification at 24 hr.: +++ (+++ indicates greater than 20% labelling)
A549 cells
  IC50: ≤ 500 nM

## C#Cc1c(F)ccc2cc(O)cc(-c3ccc4c(N5CCCC6(CN(C(=O)n7cncn7)C6)C5)nc(OC[C@@]56CCCN5C[C@H](F)C6)nc4c3F)c12 [Compound A210, (6-(7-(8-ethynyl-7-fluoro-3-hydroxynaphthalen-1-yl)-8-fluoro-2-(((2R,7aS)-2-fluoro-tetrahydro-1H-pyrrolizin-7a(5H)-yl)methoxy)quinazolin-4-yl)-2,6-diazaspiro[3.5]nonan-2-yl)(1H-1,2,4-triazol-1-yl)-methanone]
LS123 cells
  Compound IC50 Ratio IC50 (Cpd A):IC50 (Cpd B): >4 (LS123 cells)

## N#Cc1cn(C(=O)N2CC3(CCN(c4nc(OC[C@@]56CCCN5C[C@H](F)C6)nc5c(F)c(-c6ccc(F)c7sc(N)nc67)c(Cl)cc45)CC3)C2)cn1 [Compound A179, 1-(7-(7-(2-amino-7-fluorobenzo-[d]thiazol-4-yl)-6-chloro-8-fluoro-2-(((2R,7aS)-2-fluoro-tetrahydro-1H-pyrrolizin-7a(5H)-yl)methoxy)quinazolin-4-yl)-2,7-diazaspiro[3.5]nonane-2-carbonyl)-1H-imidazole-4-carbonitrile]
GP2D cells
  IC50: 1000 to 10000 nM
K-Ras G12S
  Ratio of IC50 KRAS G12D vs. IC50 KRAS G12S: A (A: indicates that the ratio of IC50 against KrasG12D vs. IC50 against KrasG12S is 1-fold or greater)

## N#Cc1c(N)sc2c(F)ccc(-c3c(Cl)cc4c(N5CC6(CCCN(C(=O)n7cncn7)C6)C5)nc(OC[C@@]56CCCN5C[C@H](F)C6)nc4c3F)c12 [Compound A266, 4-(4-(6-(1H-1,2,4-triazole-1-carbonyl)-2,6-diazaspiro[3.5]-nonan-2-yl)-6-chloro-8-fluoro-2-(((2R,7aS)-2-fluorotetra-hydro-1H-pyrrolizin-7a(5H)-yl)methoxy)quinazolin-7-yl)-2-amino-7-fluorobenzo[b]thio-phene-3-carbonitrile]
[3]
  half-life at 0.5 μM: > 10 min
[1]
  covalent labeling of K-Ras G12D: essentially no detectable labeling
LS123 cells
  Compound IC50 Ratio IC50 (Cpd A):IC50 (Cpd B): >4 (LS123 cells)

## N#Cc1c(N)sc2c(F)ccc(-c3c(Cl)cc4c(N5CCCCC6(CN(C(=O)n7cncn7)C6)C5)nc(OC[C@@]56CCCN5C[C@H](F)C6)nc4c3F)c12 [Compound A295, 4-(4-(2-(1H-1,2,4-triazole-1-carbonyl)-2,6-diazaspiro[3.6]-decan-6-yl)-6-chloro-8-fluoro-2-(((2R,7aS)-2-fluorotetra-hydro-1H-pyrrolizin-7a(5H)-yl)methoxy)quinazolin-7-yl)-2-amino-7-fluorobenzo[b]thio-phene-3-carbonitrile]
[1]
  covalent labeling of K-Ras G12D: essentially no detectable labeling
LS123 cells
  Compound IC50 Ratio IC50 (Cpd A):IC50 (Cpd B): >4 (LS123 cells)

## C#Cc1c(F)ccc2cc(O)cc(-c3ncc4c(N5CC6CCC(C5)N6C(=O)n5ccc(C#N)n5)nc(OC[C@@]56CCCN5C[C@H](F)C6)nc4c3F)c12 [Compound A216, 1-(3-(7-(8-ethynyl-7-fluoro-3-hydroxynaphthalen-1-yl)-8-fluoro-2-(((2R,7aS)-2-fluoro-tetrahydro-1H-pyrrolizin-7a(5H)-yl)methoxy)pyrido[4,3-d]pyrimidin-4-yl)-3,8-diaza-bicyclo[3.2.1]octane-8-carbon-yl)-1H-pyrazole-3-carbonitrile]
In vitro
  half-life at 0.5 μM: > 10 min
GP2D cells
  IC50: ≤ 1000 nM
A549 cells
  IC50: ≤ 500 nM

## Cc1cn(C(=O)N2C3CCC2CN(c2nc(OC[C@@]45CCCN4C[C@H](F)C5)nc4c(F)c(-c5ccc(F)c6sc(N)c(C#N)c56)c(Cl)cc24)C3)nn1 [Compound A189, 2-amino-4-(6-chloro-8-fluoro-2-(((2R,7aS)-2-fluorotetrahydro-1H-pyrrolizin-7a(5H)-yl)meth-oxy)-4-(8-(4-methyl-1H-1,2,3-triazole-1-carbonyl)-3,8-diaza-bicyclo[3.2.1]octan-3-yl)quin-azolin-7-yl)-7-fluorobenzo[b]-thiophene-3-carbonitrile]
GP2D cells
  IC50: ≤ 1000 nM
A549 cells
  IC50: ≤ 500 nM
